Reference: US20230295118A1 (EnhancedBio Inc., priority 2022, published 2023)
Where two headings read alike, the source gives them in different places.

Assays:
Assay type in all cases: cell-based
CDK4 = molecular target: T1, CDK4 (Homo sapiens, UniProt P11802); assay: CDK4 degradation (DC50, Dmax)
T1 construct: endogenous in cells

[1] = system: mantle cell lymphoma cell (Mino or JeKo-1); assay: Antiproliferative effect, MTS cell viability assay
How it was run: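 Mino cells treated with compounds at 0, 0.0001, 0.001, 0.01, 0.1, 1 μM for 72 h; palbociclib and abemaciclib as positive controls. Viability by MTS, formazan absorbance read at 490 nm.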

CDK6 = molecular target: T2, CDK6 (Homo sapiens, UniProt Q00534); assay: CDK6 degradation (DC50, Dmax)
T2 construct: endogenous in cells

[2] = 72 h, mantle cell lymphoma cell (Mino or JeKo-1), MTS assay, read-out: IC50 (anti-proliferation)
[3] = mantle cell lymphoma cell (Mino or JeKo-1); MTS assay, 72 h; read-out: IC50 (anti-proliferation)

T2 sequence (Q00534 whole entry): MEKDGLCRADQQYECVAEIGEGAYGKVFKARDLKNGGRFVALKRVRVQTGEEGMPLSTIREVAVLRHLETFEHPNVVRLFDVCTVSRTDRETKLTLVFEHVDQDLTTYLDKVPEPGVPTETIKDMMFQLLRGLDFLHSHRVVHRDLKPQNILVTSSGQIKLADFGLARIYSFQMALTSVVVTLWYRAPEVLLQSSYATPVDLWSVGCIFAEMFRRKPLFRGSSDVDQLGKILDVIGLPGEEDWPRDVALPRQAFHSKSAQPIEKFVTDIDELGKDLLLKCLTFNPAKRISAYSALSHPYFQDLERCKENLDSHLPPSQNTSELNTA
T1 sequence (P11802 whole entry): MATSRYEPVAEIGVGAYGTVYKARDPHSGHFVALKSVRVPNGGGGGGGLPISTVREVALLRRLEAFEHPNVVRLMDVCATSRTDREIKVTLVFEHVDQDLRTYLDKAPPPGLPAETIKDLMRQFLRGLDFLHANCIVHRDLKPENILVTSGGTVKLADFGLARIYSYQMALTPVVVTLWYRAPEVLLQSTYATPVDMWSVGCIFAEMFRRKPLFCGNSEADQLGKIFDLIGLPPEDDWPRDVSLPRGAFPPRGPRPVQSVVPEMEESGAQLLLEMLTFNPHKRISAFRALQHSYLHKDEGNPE

DC50 (CDK4) [nM] | Dmax (CDK4) [%] | IC50 [1, 2] [nM] | DC50 (CDK6) [nM] | Dmax (CDK6) [%] | Dmax CDK4 (CDK4) | Dmax CDK6 (CDK6) | Structure (SMILES) | IC50 [1, 3] [nM]
50 to 200 | > 60 | 50 to 200 | 50 to 200 | > 60 |  |  | Cc1nc2c(F)cc(-c3nc(Nc4ccc(CC5CCN(C6CCN(c7ccc(C(=O)NC8CCC(=O)NC8=O)cc7)CC6)CC5)cn4)ncc3F)cc2n1C(C)C (centres unmarked) [Compound 171, N-(2,6-dioxopiperidin-3-yl)-4-(4-((6-((5-fluoro-4-(4-fluoro-1-isopropyl-2-methyl-1H-benzo[d]imidazol-6-yl)pyrimidin-2-yl)amino)pyridin-3-yl)methyl)-[1,4′-bipiperidin]-1′-yl) benzamide] | 
50 to 200 | > 60 | 50 to 200 | 50 to 200 | > 60 |  |  | CC(=O)c1c(C)c2cnc(Nc3ccc(N4CCN(CCCN(C)c5ccc6c(c5)CN(C5CCC(=O)NC5=O)C6=O)CC4)cn3)nc2n(C2CCCC2)c1=O (centres unmarked) [Compound 58, 3-(5-((3-(4-(6-((6-acetyl-8-cyclopentyl-5-methyl-7-oxo-7,8-dihydropyrido[2,3-d]pyrimidin-2-yl)amino)pyridin-3-yl)piperazin-1-yl)propyl) (methyl)amino)-1-oxoisoindolin-2-yl) piperidine-2,6-dione] | 
50 to 200 | > 60 | 50 to 200 | 50 to 200 | > 60 |  |  | Cc1nc2c(F)cc(-c3nc(Nc4ccc(CN5CCN(C(=O)C6CN(c7ccc(NC8CCC(=O)NC8=O)cc7)C6)CC5)cn4)ncc3F)cc2n1C(C)C (centres unmarked) [Compound 138, 3-((4-(3-(4-((6-((5-fluoro-4-(4-fluoro-1-isopropyl-2-methyl-1H-benzo[d]imidazol-6-yl)pyrimidin-2-yl)amino)pyridin-3-yl)methyl)piperazine-1-carbonyl)azetidin-1-yl)phenyl)amino) piperidine-2,6-dione] | 
50 to 200 | > 80 | < 50 | < 50 | > 80 |  |  | CC(=O)c1c(C)c2cnc(Nc3ccc(N4CCN(C5CCN(c6ccc(N7CCC(=O)NC7=O)cc6)CC5)CC4)cn3)nc2n(C2CCCC2)c1=O [Compound 113, 1-(4-(4-(4-(6-((6-acetyl-8-cyclopentyl-5-methyl-7-oxo-7,8-dibydropyrido[2,3-d]pyrimidin-2-yl)amino)pyridin-3-yl)piperazin-1-yl)piperidin-1-yi)phenyl) dihydropyrimidine-2,4(1H,3H)-dione] | 
> 200 | > 50 | 50 to 200 | > 200 | > 50 |  |  | CC(=O)c1c(C)c2cnc(Nc3ccc(N4CCN(C(=O)N5CCC(N6CCN(c7ccc8c(c7)C(=O)N(C7CCC(=O)NC7=O)C8=O)CC6)CC5)CC4)cn3)nc2n(C2CCCC2)c1=O (centres unmarked) [Compound 3, 5-(4-(1-(4-(6-((6-acetyl-8-cyclopentyl-5-methyl-7-oxo-7,8-dihydropyrido[2,3-d]pyrimidin-2-yl)amino)pyridin-3-yl)piperazine-1-carbonyl)piperidin-4-yl)piperazin-1-yl)-2-(2,6-dioxopiperidin-3-yl)isoindoline-1,3-dione] | 
50 to 200 |  |  | 50 to 200 |  | B (B: >60%) | B (B: >60%) | Cc1nc2c(F)cc(-c3nc(Nc4ccc(CN5CCN(C6CCN(c7ccc(C(=O)NC8CCC(=O)NC8=O)cc7)CC6)CC5)cn4)ncc3F)cc2n1C(C)C (centres unmarked) [Compound 167, N-(2,6-dioxopiperidin-3-yl)-4-(4-(4-((6-((5-fluoro-4-(4-fluoro-1-isopropyl-2-methyl-1H-benzo[d]imidazol-6-yl)pyrimidin-2-yl)amino)pyridin-3-yl)methyl)piperazin-1-yl)piperidin-1-yl)benzamide] | 50 to 200
50 to 200 | > 60 | 50 to 200 | 50 to 200 | > 60 |  |  | CC(=O)c1c(C)c2cnc(Nc3ccc(N4CCN(CCCCN(C)c5ccc6c(c5)C(=O)N(C5CCC(=O)NC5=O)C6=O)CC4)cn3)nc2n(C2CCCC2)c1=O (centres unmarked) [Compound 59, 5-((4-(4-(6-((6-acetyl-8-cyclopentyl-5-methyl-7-oxo-7,8-dihydropyrido[2,3-d]pyrimidin-2-yl)amino)pyridin-3-yl)piperazin-1-yl)butyl)(methyl)amino)-2-(2,6-dioxopiperidin-3-yl) isoindoline-1,3-dione] | 
50 to 200 | > 80 | < 50 | 50 to 200 | > 80 |  |  | Cc1nc2c(F)cc(-c3nc(Nc4ccc(CC5CCN(CC6CN(c7ccc(C(=O)NC8CCC(=O)NC8=O)cc7)C6)CC5)cn4)ncc3F)cc2n1C(C)C (centres unmarked) [Compound 141, N-(2,6-dioxopiperidin-3-yl)-4-(3-((4-((6-{(5-fluoro-4-(4-fluoro-1-isopropyl-2-methyl-1H-benzo[d]imidazol-6-yl)pyrimidin-2-yl)amino)pyridin-3-yl)methyl)piperidin-1-yl)methyl)azetidin-1-yl)benzamide] | 
> 200 | > 50 | > 200 | > 200 | > 50 |  |  | CC(=O)c1c(C)c2cnc(Nc3ccc(N4CCN(C(=O)N5CCN(CC6CCN(c7ccc8c(c7)C(=O)N(C7CCC(=O)NC7=O)C8=O)CC6)CC5)CC4)cn3)nc2n(C2CCCC2)c1=O (centres unmarked) [Compound 15, 5-(4-((4-(4-(6-((6-acetyl-8-cyclopentyl-5-methyl-7-oxo-7,8-dihydropyrido[2,3-d]pyrimidin-2-yl)amino)pyridin-3-yl)piperazine-1-carbonyl)piperazin-1-yl)methyl)piperidin-1-yl)-2-(2,6-dioxopiperidin-3-yl) isoindoline-1,3-dione] | 
> 200 | > 60 | > 200 | > 200 | > 60 |  |  | CC(=O)c1c(C)c2cnc(Nc3ccc(N4CCN(C(=O)N5CCN(CCN6CCN(c7ccc8c(c7)CN(C7CCC(=O)NC7=O)C8=O)CC6)CC5)CC4)cn3)nc2n(C2CCCC2)c1=O (centres unmarked) [Compound 22, 3-(5-(4-(2-(4-(4-(6-((6-acetyl-8-cyclopentyl-5-methyl-7-oxo-7,8-dihydropyrido[2,3-d]pyrimidin-2-yl)amino)pyridin-3-yl)piperazine-1-carbonyl)piperazin-1-yl)ethyl)piperazin-1-yl)-1-oxoisoindolin-2-yl)piperidine-2,6-dione] | 
> 200 | > 60 | > 200 | > 200 | > 60 |  |  | CC(=O)c1c(C)c2cnc(Nc3ccc(N4CCN(C(=O)N5CCN(CCC6CCN(c7ccc8c(c7)C(=O)N(C7CCC(=O)NC7=O)C8=O)CC6)CC5)CC4)cn3)nc2n(C2CCCC2)c1=O (centres unmarked) [Compound 23, 5-(4-(2-(4-(4-(6-((6-acetyl-8-cyclopentyl-5-methyl-7-oxo-7,8-dihydropyrido[2,3-d]pyrimidin-2-yl)amino)pyridin-3-yl)piperazine-1-carbonyl)piperazin-1-yl)ethyl)piperidin-1-yl)-2-(2,6-dioxopiperidin-3-yl) isoindoline-1,3-dione] | 
> 200 | > 50 | > 200 | > 200 | > 50 |  |  | CC(=O)c1c(C)c2cnc(Nc3ccc(N4CCN(CC5CCN(C(=O)N6CCC(C7CCN(c8ccc9c(c8)C(=O)N(C8CCC(=O)NC8=O)C9=O)CC7)CC6)CC5)CC4)cn3)nc2n(C2CCCC2)c1=O (centres unmarked) [Compound 82, 5-(1′-(4-((4-(6-((6-acetyl-8-cyclopentyl-5-methyl-7-oxo-7,8-dihydropyrido[2,3-d]pyrimidin-2-yl)amino)pyridin-3-yl)piperazin-1-yl)methyl)piperidine-1-carbonyl)-[4,4′-bipiperidin]-1-yl)-2-(2,6-dioxopiperidin-3-yl) isoindoline-1,3-dione] | 
< 50 | > 80 | < 50 | 50 to 200 | > 80 |  |  | CC(=O)c1c(C)c2cnc(Nc3ccc(N4CCN(CC5CN(c6ccc(NC7CCC(=O)NC7=O)cc6)C5)CC4)cn3)nc2n(C2CCCC2)c1=O (centres unmarked) [Compound 120, 3-((4-(3-((4-(6-((6-acetyl-8-cyclopentyl-5-methyl-7-oxo-7,8-dihydropyrido[2,3-d]pyrimidin-2-yl)amino)pyridin-3-yl)piperazin-1-yl)methyl)azetidin-1-yl)phenyl)amino) piperidine-2,6-dione] | 
< 50 | > 80 | < 50 | < 50 | > 80 |  |  | Cc1nc2c(F)cc(-c3nc(Nc4ccc(CN5CCN(CCNc6ccc7c(c6)C(=O)N(C6CCC(=O)NC6=O)C7)CC5)cn4)ncc3F)cc2n1C(C)C (centres unmarked) [Compound 91, 3-(6-((2-(4-((6-((5-fluoro-4-(4-fluoro-1-isopropyl-2-methyl-1H-benzo[d]imidazol-6-yl)pyrimidin-2-yl)amino)pyridin-3-yl)methyl)piperazin-1-yl)ethyl)amino)-1-oxoisoindolin-2-yl)piperidine-2,6-dione] | 
50 to 200 | > 60 | 50 to 200 | 50 to 200 | > 80 |  |  | Cc1nc2c(F)cc(-c3nc(Nc4ccc(CC5CCN(C(=O)C6CCN(c7ccc(NC8CCC(=O)NC8=O)cc7)CC6)CC5)cn4)ncc3F)cc2n1C(C)C (centres unmarked) [Compound 164, 3-((4-(4-(4-((6-((5-fluoro-4-(4-fluoro-1-isopropyl-2-methyl-1H-benzo[d]imidazol-6-yl)pyrimidin-2-yl)amino)pyridin-3-yl)methyl)piperidine-1-carbonyl)piperidin-1-yl)phenyl)amino) piperidine-2,6-dione] | 

Structure (SMILES) | DC50 (CDK4) [nM] | Dmax (CDK4) [%] | IC50 [1, 2] [nM] | DC50 (CDK6) [nM] | Dmax (CDK6) [%] | Dmax CDK4 (CDK4) | Dmax CDK6 (CDK6) | IC50 [1, 3] [nM]
CC(=O)c1c(C)c2cnc(Nc3ccc(N4CCN(C(=O)N5CCN(c6ccc7c(c6)C(=O)N(C6CCC(=O)NC6=O)C7=O)CC5)CC4)cn3)nc2n(C2CCCC2)c1=O (centres unmarked) [Compound 1, 5-(4-(4-(6-((6-acetyl-8-cyclopentyl-5-methyl-7-oxo-7,8-dihydropyrido[2,3-d]pyrimidin-2-yl)amino)pyridin-3-yl)piperazine-1-carbonyl)piperazin-1-yl)-2-(2,6-dioxopiperidin-3-yl) isoindoline-1,3-dione] | 50 to 200 | > 60 |  | < 50 | > 60 |  |  | < 50
